# Laboratory results as given in patent publication US6335333B1, “N-arylsulfonylamino acid omega-amides” (Aventis Pharma Deutschland GmbH, priority 1998, dated 2002).
# Counter-ions that a name gives are not always drawn. Like-named read-outs stand apart in the source and are kept apart here.
# Columns and labels:
# [1] = biological target: T1, human stromelysin (MMP-3) (Homo sapiens, UniProt P08254); experiment: Inhibition of enzymatic activity of catalytic domain of stromelysin (fluorogenic substrate); format: biochemical; settings: pH 6.5, 15 min preincubation
# T1 construct: enzymatic activity of the catalytic domain of human stromelysin; made in house
# Protocol: (§1) Preparation and determination of the enzymatic activity of the catalytic domain of human stromelysin and of neutrophil collagenase.
# (§2) The two enzymes—stromelysin (MMP-3) and neutrophil collagenase (MMP-8)—were prepared according to Ye et al. (Biochemistry; 31 (1992) pages 11231-11235) or Weithmann et al. (Inflamm Res 46(1997) 246-252). For measurement of the inhibitory action on the enzymatic activity, 70 μl of buffer solution and 10 μl of enzyme solution were incubated for 15 minutes with 10 μl of a 10% strength (v/v) aqueous dimethyl sulfoxide solution which optionally contained the enzyme inhibitor. After addition of 10 μl of a 10% strength (v/v) aqueous dimethyl sulfoxide solution which contained 1 mmol/l of the substrate, the enzyme reaction was monitored by fluorescence spectroscopy (328 nm (ex)/393 nm (em)). The enzyme activity was shown as the extinction increase/minute. The IC50 values listed in Table 2 were determined as those inhibitor concentrations which in each case led to a 50% inhibition of the enzyme. The buffer solution contained 0.05% of Brij (Sigma, Deisenhofen, Germany) and 0.1 mol/l of piperazine-N,N′-bis[2-ethanesulfonic acid]/NaOH, 0.1 mol/l of NaCl, 0.01 mol/l of CaCl2 and 0.1 mol/l of piperazine-N,N′-bis[2-ethanesulfonic acid] (pH=6.5). The enzyme solution contained 5 μg/ml of one of the enzyme domains prepared according to Ye et al. The substrate solution contained 1 mmol/l of the fluorogenic substrate (7-methoxycoumarin-4-yl)acetyl-Pro-Leu-Gly-Leu-3-(2′,4′-dinitrophenyl)-L-2,3-diaminopropionyl-Ala-Arg-NH2 (Bachem, Heidelberg, Germany).
# [2] = biological target: T2, neutrophil collagenase (MMP-8) (Homo sapiens, UniProt P22894); experiment: Inhibition of enzymatic activity of catalytic domain of neutrophil collagenase (fluorogenic substrate); format: biochemical; settings: pH 6.5, 15 min preincubation
# T2 construct: catalytic domain of human stromelysin and of neutrophil collagenase; made in house
# Protocol: as §1, §2
# [3] = Determination of the solubility in water (HPLC against external standard); format: physicochemical
# Protocol: Determination of the solubility in water of the free acid of 2-(4′-chloro-biphenyl-4-sulfonylamino)-5-(5-fluoro-2,3-dihydroindol-1-yl)-5-oxopentanoic acid according to Example 8 and its tromethamine salt according to Example 15
# (§3) Approximately 50 mg of test substance according to 1.1a) were initially introduced into a 100 ml Erlenmeyer flask. After addition of 10 ml of water, the mixture was stirred at 25° C. After 2 hours (h) and after 3 h, aliquots were taken and centrifuged. 1 ml each of the supernatant was diluted to 10 ml with mobile phase. The concentration of the active component was determined by means of HPLC against an external standard. Repetition of the experiment.
# as §3, with “Approximately 800” for “Approximately 50”, “of the tromethamine salt” for “of test substance”, “to 1.1b)” for “to 1.1a)”, “2 h” for “2 hours (h)”, “to 100” for “to 10”
# T2 sequence (P22894 100-262 limits assumed): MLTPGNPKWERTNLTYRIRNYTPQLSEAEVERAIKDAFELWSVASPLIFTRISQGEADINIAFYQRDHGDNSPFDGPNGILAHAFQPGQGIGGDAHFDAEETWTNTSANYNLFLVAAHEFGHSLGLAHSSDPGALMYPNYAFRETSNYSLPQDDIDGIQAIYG
# T1 sequence (P08254 100-272 limits assumed): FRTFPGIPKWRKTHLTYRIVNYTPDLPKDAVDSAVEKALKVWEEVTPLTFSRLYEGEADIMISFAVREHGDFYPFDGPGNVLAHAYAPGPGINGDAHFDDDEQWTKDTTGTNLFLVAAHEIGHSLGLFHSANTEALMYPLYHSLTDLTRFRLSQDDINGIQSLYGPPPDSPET
IC50 [1] [nM],IC50 [2] [nM],Structure (SMILES),other results
100,–,"O=C(O)[C@H](CCC(=O)N1CCc2ccccc21)NS(=O)(=O)c1ccc(-c2ccc(Br)cc2)cc1 [Example 9, 2-(4′-bromobiphenyl-4-sulfonyl-amino)-5-(2,3-dihydroindol-1-yl)-5-oxopentanoic acid]",–
100,–,"O=C(O)[C@H](CCC(=O)N1CCc2cc(F)ccc21)NS(=O)(=O)c1ccc(-c2ccc(Cl)cc2)cc1 [Example 10, 2-(4′-chloro-biphenyl-4-sulfonylamino)-5-(5-fluoro-2,3-dihydroindol-1-yl)-5-oxopentanoic acid]",–
50,10,O=C(O)[C@@H](CCC(=O)N1CCc2ccccc21)NS(=O)(=O)c1ccc(-c2ccc(Cl)cc2)cc1 [Example 14],–
100,10,"O=C(O)[C@H](CCC(=O)N1CCc2ccccc21)NS(=O)(=O)c1ccc(-c2ccc(Cl)cc2)cc1 [Example 8, 2-(4′-Chlorobiphenyl-4-sulfonylamino)-5-(2,3-dihydroindol-1-yl)-5-oxopentanoic acid]",–

# Second part, the molecule before the results:
Structure (SMILES),IC50 [1] [nM],IC50 [2] [nM],other results
"O=C(CC[C@H](NS(=O)(=O)c1ccc(-c2ccccc2)cc1)C(=O)O)Nc1cccc2ccccc12 [Example 1, 2-(biphenyl-4-sulfonylamino)4-(naphthalen-1-ylcarb-amoyl)butyric acid]",100,10,–
"O=C(O)[C@H](CCC(=O)N1CCc2ccccc21)NS(=O)(=O)c1ccc(-c2ccc(Cl)cc2)cc1 (stereo in doubt) [Example 8, 2-(4′-Chlorobiphenyl-4-sulfonylamino)-5-(2,3-dihydroindol-1-yl)-5-oxopentanoic acid]",–,–,"solubility at 2 h ([3]; thermodynamic from solid, water, 25° C., stirred 2 h, mean value from two determinations, read-out: Solubility in water at 25° C. after 2 h): 200 µg/mL; solubility at 3 h ([3]; thermodynamic from solid, water, 25° C., stirred 3 h, mean value from two determinations, read-out: Solubility in water at 25° C. After 3 h): 100 µg/mL; Solubility in water at 25° C. Result ([3]; water, 25° C., data value obtained after 3 h is used): 100 µg/mL"
"O=C(O)[C@H](CCC(=O)N1CCc2ccccc21)NS(=O)(=O)c1ccc(-c2ccc(N3CCCC3)cc2)cc1 [Example 7, 5-(2,3-dihydroindol-1-yl)-5-oxo-2-(4′-pyrrolidin-1-yl-biphenyl-4-sulfonyl-amino)pentanoic acid]",40,4,–
"O=C(CC[C@H](NS(=O)(=O)c1ccc(-c2ccccc2)cc1)C(=O)O)NCCNc1ccccc1 [Example 3, 2-(biphenyl-4-sulfonylamino)-4-(2-phenylamino-ethylcarbamoyl)butyric acid]",200,–,–
"NC(CO)(CO)CO.O=C(O)C(CCC(=O)N1CCc2ccccc21)NS(=O)(=O)c1ccc(-c2ccc(Cl)cc2)cc1 (stereo not shown) [Example 15, Tromethamine salt of 2-(4′-chlorobiphenyl-4-sulfonylamino)-5-(2,3-dihydroindol-1-yl)-5-oxopentanoic acid]",–,–,"Solubility in water at 25° C. After 3 h [3]: 58000 µg/mL; Solubility in water at 25° C. Result [3]: 58000 µg/mL; Solubility in water at 25° C. after 2 h [3]: 58000 µg/mL; Water solubility of tromethamine salt higher than that of the free acid, factor [3]: ~600"
"O=C(O)[C@H](CCC(=O)N1CCc2cc(F)ccc21)NS(=O)(=O)c1ccc(-c2ccc(Br)cc2)cc1 [Example 11, 2-(4′-bromobiphenyl-4-sulfonylamino)-5-(5-fluoro-2,3-dihydroindol-1-yl)-5-ox-opentanoic acid]",100,–,–
"O=C(CC[C@H](NS(=O)(=O)c1ccc(-c2ccccc2)cc1)C(=O)O)Nc1ccc2ccccc2c1 [Example 2, 2-(biphenyl-4-sulfonylamino)-4-(naphthalen-2-yl-carbamoyl)butyric acid]",200,–,–
"O=C(O)[C@H](CCC(=O)N1CCc2ccccc21)NS(=O)(=O)c1ccc(-c2ccccc2)cc1 [Example 6, 2-(Biphenyl-4-sulfonylamino)-5-(2,3-dihydroindol-1-yl)-5-oxopentanecarboxylic acid]",500,–,–
"O=C(O)[C@H](CCC(=O)N1CCc2cc(F)ccc21)NS(=O)(=O)c1ccc(-c2ccc(N3CCOCC3)cc2)cc1 [Example 13, 5-(5-fluoro-2,3-dihydroindol-1-yl)-2-(4′-morpholin-4-yl-biphenyl-4-sulfonylamino)-5-oxopentanoic acid]",100,10,–
"O=C(CC[C@H](NS(=O)(=O)c1ccc(-c2ccccc2)cc1)C(=O)O)NCCCN1CCOCC1 [Example 5, 4-(3-(4-(Biphenyl-4-sulfonylamino)-4-carboxybutyrylamino)-propyl)morpholin-4-ium trifluoroacetate]",100,6,–
"O=C(CC[C@H](NS(=O)(=O)c1ccc(-c2ccc(Cl)cc2)cc1)C(=O)O)NCCCN1CCOCC1 [Example 4, 2-(4′-chloro-biphenyl-4-sulfonylamino)-4-(3-morpholin-4-ylpropylcarbamoyl)butyric acid]",100,–,–
"O=C(O)[C@H](CCC(=O)N1CCc2cc(F)ccc21)NS(=O)(=O)c1ccc(-c2ccc(N3CCCC3)cc2)cc1 [Example 12, 5-(5-Fluoro-2,3-dihydroindol-1-yl)-5-oxo-2-(4′-pyrrolidin-1-ylbiphenyl-4-sulfonylamino)pentanoic acid]",30,2,–
